Data taken from ChEMBL document CHEMBL1201862, “PubChem BioAssay data set” (2004).
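Five compound concentrations were applied to cells in 96-well plates for 48 hours; endpoints were derived by simple linear interpolation of the resulting dose-response curve. GI50: concentration for 50% inhibition of growth.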 Activity calls are given as the source filed them. Rule as the data show it: active = GI50 up to about 1.1 µM and inactive = higher.

How the values were obtained:
Assay in all cases: DTP human tumour cell line panel, 48 h
EKVX = tested on: EKVX
HCC 2998 = tested on: HCC 2998
HOP-62 = tested on: HOP-62
HT-29 = tested on: HT-29
K562 = tested on: K562
KM12 = tested on: KM12
MDA-MB-435 = tested on: MDA-MB-435
MOLT-4 = tested on: MOLT-4
NCI-H460 = tested on: NCI-H460
NCI/ADR-RES = tested on: NCI/ADR-RES
OVCAR-3 = tested on: OVCAR-3
OVCAR-8 = tested on: OVCAR-8
RPMI-8226 = tested on: RPMI-8226
SF-295 = tested on: SF-295
SF-539 = tested on: SF-539
SNB-19 = tested on: SNB-19
UACC-257 = tested on: UACC-257
UO-31 = tested on: UO-31
SR = tested on: SR

Measured: GI50

CC(=O)NCc1nc(C#N)c(N)o1
inactive: EKVX > 100 µM | HCC 2998 > 100 µM | HOP-62 > 100 µM | HT-29 > 100 µM | K562 > 100 µM | KM12 > 100 µM | MDA-MB-435 > 100 µM | MOLT-4 > 100 µM | NCI-H460 > 100 µM | NCI/ADR-RES > 100 µM | OVCAR-3 > 100 µM | OVCAR-8 > 100 µM | RPMI-8226 > 100 µM | SF-295 > 100 µM | SF-539 > 100 µM | SNB-19 > 100 µM | UACC-257 > 100 µM | UO-31 > 100 µM

Nc1nc(N)c(NC(=O)CCCO)c(=O)[nH]1
inactive: EKVX > 100 µM | HCC 2998 > 100 µM | HOP-62 > 100 µM | HT-29 > 100 µM | K562 > 100 µM | KM12 > 100 µM | MDA-MB-435 > 100 µM | MOLT-4 > 100 µM | NCI-H460 > 100 µM | NCI/ADR-RES > 100 µM | OVCAR-3 > 100 µM | OVCAR-8 > 100 µM | RPMI-8226 > 100 µM | SF-295 > 100 µM | SF-539 > 100 µM | SNB-19 > 100 µM | UACC-257 > 100 µM | UO-31 > 100 µM

CCOC(=O)c1nnsc1NC(=O)Nc1ccc(Cl)cc1
inactive: EKVX 42 µM | HCC 2998 38.5 µM | HOP-62 68.9 µM | HT-29 54.3 µM | K562 > 100 µM | KM12 51.6 µM | MDA-MB-435 > 100 µM | MOLT-4 > 100 µM | NCI-H460 7 µM | NCI/ADR-RES 25.1 µM | OVCAR-3 43.2 µM | OVCAR-8 18.5 µM | RPMI-8226 44.5 µM | SNB-19 > 100 µM | UACC-257 > 100 µM | UO-31 31.1 µM

NC(=O)c1c2c(cc3c(=O)c4ccccc4[nH]c13)CCCC2
inactive: EKVX > 100 µM | HCC 2998 > 100 µM | HOP-62 > 100 µM | HT-29 > 100 µM | K562 > 65.2 µM | KM12 > 100 µM | MOLT-4 > 61.2 µM | NCI-H460 > 100 µM | OVCAR-3 > 100 µM | OVCAR-8 > 97.3 µM | RPMI-8226 > 46.8 µM | SF-295 > 100 µM | SF-539 > 100 µM | SNB-19 > 71.4 µM | SR > 100 µM | UACC-257 > 100 µM | UO-31 > 100 µM

C=CC[C@H](N=C(SC)SC)C(=O)N1C(=O)N(C)[C@@H](C)[C@H]1c1ccccc1
inactive: EKVX 31.3 µM | HCC 2998 27.9 µM | HOP-62 46.5 µM | HT-29 38.6 µM | K562 29.6 µM | KM12 36.2 µM | MDA-MB-435 33.8 µM | MOLT-4 26.4 µM | NCI-H460 34.1 µM | NCI/ADR-RES 29.5 µM | OVCAR-3 29.4 µM | OVCAR-8 51.1 µM | SF-295 40.3 µM | SF-539 36.4 µM | SNB-19 58.7 µM | UACC-257 29.2 µM | UO-31 47.9 µM

COC(=O)c1cc(NC(=O)c2cc(NC(=O)c3cc([N+](=O)[O-])cn3C)cn2C)cn1C
inactive: EKVX 34.1 µM | HOP-62 > 100 µM | HT-29 > 100 µM | K562 61.9 µM | KM12 64.1 µM | MDA-MB-435 98.6 µM | MOLT-4 29.8 µM | NCI-H460 40.3 µM | NCI/ADR-RES 61.4 µM | OVCAR-3 > 100 µM | OVCAR-8 > 100 µM | RPMI-8226 29.4 µM | SF-295 89.5 µM | SF-539 > 100 µM | SNB-19 59.6 µM | UO-31 68.4 µM

CCN1CC(C)Cn2c(=O)[nH]c3cc(Br)cc1c32 (configuration not stated)
inactive: EKVX 3.3 µM | HCC 2998 32.8 µM | HOP-62 30.5 µM | HT-29 33.5 µM | K562 2.91 µM | KM12 22.9 µM | MDA-MB-435 2.75 µM | MOLT-4 3.05 µM | NCI-H460 30.6 µM | NCI/ADR-RES 8.05 µM | OVCAR-3 20.3 µM | OVCAR-8 23.7 µM | RPMI-8226 1.79 µM | SF-295 21.1 µM | SF-539 29.8 µM | SNB-19 26.4 µM | UACC-257 76 µM | UO-31 40.1 µM

Cc1cc(-c2c(Br)cc(C(=O)O)n2C)on1
inactive: EKVX > 100 µM | HOP-62 > 100 µM | HT-29 > 100 µM | K562 > 100 µM | KM12 > 100 µM | MDA-MB-435 > 100 µM | MOLT-4 > 100 µM | NCI-H460 > 100 µM | NCI/ADR-RES > 100 µM | OVCAR-3 > 100 µM | OVCAR-8 > 100 µM | RPMI-8226 > 100 µM | SF-295 > 100 µM | SF-539 > 100 µM | SNB-19 > 100 µM | UACC-257 > 100 µM | UO-31 > 100 µM
